In US10040779B2, “Histone demethylase inhibitors” (priority 2012, dated 2018):

System: KDM5A and KDM5B
Test: In vitro cell-based assay: tri-methyl H3K4 immuno-blotting in ZR-75-1 breast cancer cells
Details: 72 hr, read-out: Cellular IC50
Method: This quantitative immuno-blotting assay measures the amount tri-methylated histone H3 at amino acid Lysine number 4, a specific substrate […] of the direct enzymatic activity of the histone demethylases KDM5A and KDM5B from extracts of the ZR-75-1 breast cancer cell line.
This assay is a fluorometric immunoassay for the quantification of tri-methyl H3K4 extracted from cells treated with test compound and is used as a measure of the cellular inhibition of KDM5A/B.
Extracts were prepared containing all of the cellular histone material using detergent based lysis and sonication methods. These lysates were subsequently normalized for total protein content using a colorimetric bicinchonic acid assay (MicroBCA Pierce/Thermo Scientific). Normalized cell extracts were then subjected to typical immuno-blotting procedures using NuPage reagents (Life Technologies). […] The amount of tri-methylated lysine 4 of histone H3 was detected using an antibody specific to the tri-methylated state (Cell Signaling Technologies) and quantified on an infrared imager using a densitometry software package (Odyssey CLx, Image Studio, Li-Cor). This background subtracted densitometry value was reported as a ration of the GAPDH amount for that sample and then calculated as a percent of the DMSO treated sample.

## O=C(O)c1ccncc1Nc1cn(C2CCOC2)c2ccc(F)cc12 (stereo not shown) [Example 68, 3-{[5-fluoro-1-(tetrahydrofuran-3-yl)-1H-indol-3-yl]amino}pyridine-4-carboxylic acid]
  IC50: 1 to 10 µM
